According to patent US20060025477A1, “Analogs of isovaleramide, a pharmaceutical composition including the same, and a method of treating central nervous system conditions or diseases” (priority 2004, published 2006):
“And” between values parts separate entries of the source, which are not always exact repeats. Identical values can stand only once. Like-named read-outs stand apart in the source and are kept apart here.

What was measured:
male Swiss-Webster mice [1] = assay: Maximal electroshock (MES)-induced tonic extension seizure test; format: in vivo, mouse; details: 300 mg/kg p.o.
Description: In the MES test, a substance is administered orally (p.o.) and is tested for efficacy against maximal electroshock (MES)-induced tonic extension seizures. Adult male Swiss-Webster mice (each 20-25 g of body weight) were used. The mice were housed in Association for the Assessment and Accreditation of Laboratory Animal Care-approved facilities under a constant 12-hour light/dark cycle with a constant temperature of 21° C.-23° C. and a relative humidity of 30% to 50%. All animals were permitted free access to standard laboratory chow (Prolab RMH 3000; PMI Nutrition International, LLC, Brentwood, Mo.) and water, except when removed from their home cages for testing. All mice were handled in a manner consistent with the recommendations in the National Research Council Publication Guide for the Care and Use of Laboratory Animals.
(§1) Test compounds (Compound S, Compound W, the S-enantiomer of Compound AA, the R-enantiomer of Compound AA, Compound HH, Compound JJ, and Compound MM) were dissolved in saline containing 0.5% methylcellulose. To determine time to peak effect, 300 mg/kg of each of the test compounds was suspended in 0.5% methylcellulose in saline and administered orally to a group of 20 mice. For comparative purposes, isovaleramide was also tested. At various times (0.25, 0.5, 1, 2, and 4 hours) after p.o. administration, individual mice were placed on the rotarod and tested for their ability to maintain balance on a rotating (6 rpm) 2.5-cm diameter knurled rod for 60 seconds. Mice that fell three times in this 60-second trial were considered impaired.
Following rotarod testing, the mice were tested in the maximal electroshock (MES)-induced tonic extension seizures test. For this test, a drop of electrolyte solution (0.5% butacaine sulfate in 0.9% saline) was placed on the eyes of each mouse prior to placement of corneal electrodes. The mice were restrained by gripping the loose skin on their dorsal surface and saline-coated corneal electrodes were held lightly against the two corneas. Each mouse received an electrical stimulation (50 mAmp, 50 Hz current, 0.2 sec) delivered through a silver-coated corneal electrode using an electroshock machine as originally described by Woodbury and Davenport (Arch Int. Pharmacodyn. Ther., 92:97-104, 1952). […] A tonic seizure was defined as a hindlimb extension in excess of 90 degrees from the plane of the body. Results were treated in a quantal manner. […] ED50's (the effective dose at which 50% of the mice were protected) were determined for Compounds W and HH by administering various doses (30, 100, 300 mg/kg) at the previously determined time to peak effect, as shown in Table 11.

Frings mice = assay: Rotarod test of motor impairment (toxicity) in the Frings study; format: in vivo
Description: (§2) At each dose, the mice were also tested on a rotarod for testing of motor impairment (toxicity). Testing for motor impairment on the rotarod involved placing a mouse for a three-minute trial period on a one-inch diameter rod rotating at six revolutions per minute. If the mouse fell off of the rotating rod three times within the three-minute time period, the dose was considered a toxic response.
(§3) The therapeutic index relates to separation between therapeutic efficacy and CNS toxicity as measured by motor impairment in the rotarod performance test.

[2] = as above; format: in vivo; details: Frings, mouse, in vivo, po, rotarod, Table 4
Description: as §2, §3

male Swiss-Webster mice [3] = assay: Rotarod impairment test before MES testing; format: in vivo, mouse; details: 300 mg/kg p.o.
Description: as §1

[4] = tested on: Frings audiogenic seizure-susceptible mouse; assay: Frings audiogenic seizure assay (protection against sound-induced tonic hindlimb extension); format: in vivo; details: for Seizure Score ± S.E.M.: score 1-5; for ED50: Mus musculus, po
Description: The anticonvulsant activity of compound S ((S)-(+)-2,2-dimethylcyclopropane-carboxamide) was tested using the Frings audiogenic seizure-susceptible mouse. […] Compound S, which is a solution at 300 mg/kg and a suspension at 600 mg/kg, was administered to the mice at the doses indicated in Tables 1-3. Compound S was obtained from Sigma-Aldrich Chemical Co. (Aldrich catalog number: 43,463-9).
At the time of testing, individual mice were placed into a round Plexiglas chamber and exposed to a sound stimulus of 110 decibels, 11 kHz, for 20 seconds. Mice not displaying tonic hindlimb extensions upon exposure to the sound stimulus were considered protected. In addition, the seizure score for each mouse was recorded as: (1) running for less than 10 seconds; (2) running for greater than 10 seconds; (3) clonic activity of limbs and/or vibrissae; (4) forelimb extension/hindlimb flexion; and (5) hindlimb extension. The average seizure score was calculated for each group of mice used in the dose-response study.
The anticonvulsant activity of compounds I, W, X, and AA was tested using the Frings audiogenic seizure-susceptible mouse model as described in Example 23. […] The therapeutic index relates to separation between therapeutic efficacy and CNS toxicity as measured by motor impairment in the rotarod performance test.

SMILES: CC1(C)C[C@@H]1C(N)=O [Compound S, (S)-(+)-2,2-dimethylcyclopropanecarboxamide]
- # P/# T (protected/tested) (male Swiss-Webster mice [1]; 0.25 hours): 0/8
- # P/# T (protected/tested) (male Swiss-Webster mice [1]; 0.5 hours): 0/8
- # P/# T (protected/tested) (male Swiss-Webster mice [1]; 1 hour): 1/8
- # P/# T (protected/tested) (male Swiss-Webster mice [1]; 2 hours): 0/4
- # P/# T (protected/tested) (male Swiss-Webster mice [1]; 4 hours): 0/4
- #Toxic/#Tested 30 min (Frings mice; 30 mg/kg p.o., rotarod): 0/4
- #Toxic/#Tested 120 min (Frings mice; 30 mg/kg p.o., rotarod): 0/4
- #Toxic/#Tested 30 min (Frings mice; 100 mg/kg p.o., rotarod): 0/4
- #Toxic/#Tested 120 min (Frings mice; 100 mg/kg p.o., rotarod): 0/4
- #Toxic/#Tested 30 min (Frings mice; 300 mg/kg p.o., rotarod): 0/4
- #Toxic/#Tested 120 min (Frings mice; 300 mg/kg p.o., rotarod): 0/4
- #Toxic/#Tested at 15 min (Frings mice; 600 mg/kg p.o., 15 min, rotarod): 1/8
- mice with a toxic response (Frings mice; 600 mg/kg p.o., 15 minutes, rotarod): 12.5%
- separation between efficacy and CNS toxicity (Frings mice; as measured by rotarod impairment, p.o.): 10 fold
- toxic responses on the rotarod (Frings mice; doses of Table 1 (30, 100, 300 mg/kg p.o.), 30 or 120 minutes): none of the doses produced toxic responses
- separation between activity and toxicity (summary) (Frings mice; p.o.): good separation between activity and toxicity
- toxicity (summary) (Frings mice; p.o., rotarod): low toxicity
- TD50 at 15 min [2]: > 600 mg/kg
- # I/# T (impaired/tested) (male Swiss-Webster mice [3]; 0.25 hours): 0/8
- # I/# T (impaired/tested) (male Swiss-Webster mice [3]; 0.5 hours): 1/8
- # I/# T (impaired/tested) (male Swiss-Webster mice [3]; 1 hour): 1/8
- # I/# T (impaired/tested) (male Swiss-Webster mice [3]; 2 hours): 0/4
- # I/# T (impaired/tested) (male Swiss-Webster mice [3]; 4 hours): 0/4
- #Protected/#Tested 30 min ([4]; 30 mg/kg p.o., Table 1): no mice were protected and 0/4
- #Protected/#Tested 120 min ([4]; 30 mg/kg p.o., Table 1): no mice were protected and 0/4
- #Prot./#Tested at 15 min ([4]; 50 mg/kg p.o., Table 3): none of the mice were protected and 0/8
- Seizure Score ± S.E.M. ([4]; 50 mg/kg p.o.): 5 ± 0
- #Prot./#Tested at 15 min ([4]; 60 mg/kg p.o., Table 3): 5/8
- mice protected ([4]; 60 mg/kg p.o., 15 minutes, Table 3): 62.5%
- Seizure Score ± S.E.M. ([4]; 60 mg/kg p.o.): 2.1 ± 0.9
- #Prot./#Tested at 15 min ([4]; 75 mg/kg p.o., Table 3): 7/8
- mice protected ([4]; 75 mg/kg p.o., 15 minutes, Table 2): 75%
- mice protected ([4]; 75 mg/kg p.o., 15 minutes, Table 3): 87.5%
- Seizure Score ± S.E.M. ([4]; 75 mg/kg p.o.): 1.1 ± 0.6
- # Prot./# Tested ([4]; 75 mg/kg p.o., ¼ hr, Table 2): ¾
- # Prot./# Tested ([4]; 75 mg/kg p.o., ½ hr, Table 2): no mice were protected and 0/4
- #Prot./#Tested at 15 min ([4]; 100 mg/kg p.o., Table 3): 6/8
- mice protected ([4]; 100 mg/kg p.o., 15 minutes, Table 2): 75%
- mice protected ([4]; 100 mg/kg p.o., 15 minutes, Table 3): 75%
- #Protected/#Tested 30 min ([4]; 100 mg/kg p.o., Table 1): 3/4
- mice protected ([4]; 100 mg/kg p.o., 30 minutes, Table 1): 75%
- mice protected ([4]; 100 mg/kg p.o., 30 minutes, Table 2): 75%
- # Prot./# Tested ([4]; 100 mg/kg p.o., 1 hr, Table 2): no mice were protected and 0/4
- #Protected/#Tested 120 min ([4]; 100 mg/kg p.o., Table 1): 1/4
- # Prot./# Tested ([4]; 100 mg/kg p.o., 2 hrs, Table 2): 1 mouse was protected and 1/4
- mice protected ([4]; 100 mg/kg p.o., 120 minutes, Table 1): 25%
- Seizure Score ± S.E.M. ([4]; 100 mg/kg p.o.): 1.6 ± 0.8
- # Prot./# Tested ([4]; 100 mg/kg p.o., ¼ hr, Table 2): ¾
- # Prot./# Tested ([4]; 100 mg/kg p.o., ½ hr, Table 2): 3/4
- #Prot./#Tested at 15 min ([4]; 200 mg/kg p.o., Table 3): all the mice were protected and 8/8
- Seizure Score ± S.E.M. ([4]; 200 mg/kg p.o.): 0.1 ± 0.1
- #Protected/#Tested 30 min ([4]; 300 mg/kg p.o., Table 1): all of the tested mice were protected and 4/4
- #Protected/#Tested 120 min ([4]; 300 mg/kg p.o., Table 1): all of the tested mice were protected and 4/4
- average seizure score with dose ([4]; 50-200 mg/kg p.o., Table 3): generally decreased with increasing doses
- ED50 ([4]; 0.25 h, p.o., tested at 15 min, 95% confidence interval 50.16-78.92, read-out: ED50 for protection against tonic extension): 64.9 mg/kg
- ED50 ([4]; Table 4, read-out: ED50): 64.8 mg/kg
- time at which anticonvulsant activity was observed ([4]; after oral administration): as early as 15 minutes and up to 2 hours
- anticonvulsant activity (summary) ([4]; p.o.): demonstrated activity as an anticonvulsant
